{"source": "paper PMC6661952", "about": "(BMC Chemistry, 2019)", "settings": "for Log k (logarithm of the retention factor): C18 column, methanol-water; for φ 0 (isocratic chromatographic hydrophobicity index): φ 0 = − log kw/S, methanol as organic modifier, C18; for Log kw (lipophilicity chromatographic index, intercept of log k = log kw − S φ): extrapolated to pure water as eluent, C18, methanol-water", "protocol": "For chromatographic analysis, stock solutions (200 μg/mL) of each of the investigated samples were prepared in methanol. HPLC measurements were performed utilizing Shimadzu Prominence HPLC system (Shimadzu Corporation, Japan) consisting of LC-20 AD pump, DGU-20 A5 degasser, CBM-20A interface, and SPD-20A UV–Vis detector with a 20 µL injection loop. The column utilized for studying the chromatographic behavior of the analytes was the most frequently used for lipophilicity investigations: Waters symmetry® C18 column [250 mm × 4.6 mm (i.d.), 5-μm particle size]. The flow rate was 1.2 mL/min at room temperature. The retention behaviour of the analytes was investigated as a function of mobile phase composition ranging from 60–80% methanol and 40–20% water. The HPLC analyses were carried out at room temperature under isocratic conditions. Membrane filters (0.45 μm) from Sartorius (Goettingen, Germany) were used for filtration of samples. The absorbance of the analytes during a chromatographic run was performed at 200 nm. Each experiment was run in duplicate. Chromatographic data were collected using LabSolutions CS software. H^1NMR spectra were recorded using Bruker NMR spectrometer (Bruker GmbH, Germany),\nIt was shown from previous reports that the chromatographic systems using methanol: water as mobile phases were better for log k modeling than those containing acetonitrile as an organic modifier. […] Chromatographic techniques including HPLC are based on the determination of the retention parameters. The indices of lipophilicity measured by HPLC are obtained from the logarithm of the retention factor (log k), which is calculated by the following equation:1 logk=logtr-t0/t0 where; tR is the retention time of the solute and t0 is the retention time of unretained species.\nEstimating log kw directly is often very difficult, and is nearly non-feasible, because it can produce elongated retention time and also extreme peak broadening. […] Consequently, to obtain log kw, an extrapolation to 100% of pure water was carried out. Then, linear regression analysis was performed. Linear extrapolation is favored using definite ratios of organic modifier consistent with the lipophilicity level of the solutes.\nAnother substitute to the index of lipophilicity is the chromatographic index of hydrophobicity φ 0 which was first given by Valkò et al.. It is calculated simply by the equation: φ 0 = − log kw/S. φ0 denotes the volume fraction of the organic modifier in the mobile phase at which equal partitioning of the solute between the mobile and stationary phases is obtained, that is, k = 1, log k = 0 [22]. The value of φ 0 is specific for each compound; it relies solely on the pH, organic modifier and temperature.", "key": {"[1]": {"settings": "65% methanol in the mobile phase"}, "[2]": {"settings": "70% methanol in the mobile phase"}, "[3]": {"settings": "75% methanol in the mobile phase"}, "[4]": {"settings": "60% methanol in the mobile phase"}}, "note": "Values joined by “and” are separate entries in the source; they are usually repeats but may differ in a detail not shown here. Equal values may be shown once. Read-outs that look alike come from different tables or passages of the source."}
{"smiles": "Cc1ccc(-c2cc(C(F)(F)F)nn2-c2ccc(S(N)(=O)=O)cc2)cc1", "note": "[Celecoxib, 4-[5-(4-methylphenyl)-3-(trifluoromethyl)pyrazol-1yl]benzenesulfonamide, reference compound]", "values": [{"measurement": "Log k (logarithm of the retention factor)", "setting": "[1]", "result": 0.950}, {"measurement": "Log k (logarithm of the retention factor)", "setting": "[2]", "result": 0.83}, {"measurement": "Log k (logarithm of the retention factor)", "setting": "[3]", "result": 0.530}, {"measurement": "Log k (logarithm of the retention factor)", "setting": "80% methanol in the mobile phase", "result": 0.235}]}
{"smiles": "O=C(CS(=O)(=O)c1ccccc1)c1ccccc1", "note": "[Compound 11a]", "values": [{"measurement": "Log k (logarithm of the retention factor)", "setting": "[4]", "result": 0.088}, {"measurement": "Log k (logarithm of the retention factor)", "setting": "[1]", "result": 0.041}, {"measurement": "φ 0 (isocratic chromatographic hydrophobicity index)", "result": 64.83}]}
{"smiles": "Cc1ccc(C(=O)CS(=O)(=O)c2ccccc2)cc1", "note": "[Compound 11b]", "values": [{"measurement": "Log k (logarithm of the retention factor)", "setting": "[4]", "result": 0.317}, {"measurement": "Log k (logarithm of the retention factor)", "setting": "[1]", "result": 0.493}, {"measurement": "Log kw (lipophilicity chromatographic index, intercept of log k = log kw − S φ)", "result": "3.597 and 3.60"}, {"measurement": "φ 0 (isocratic chromatographic hydrophobicity index)", "result": 69.81}]}
{"smiles": "O=C(CS(=O)(=O)c1ccccc1)c1ccc(Br)cc1", "note": "[Compound 11c]", "values": [{"measurement": "Log k (logarithm of the retention factor)", "setting": "[4]", "result": 0.635}, {"measurement": "Log k (logarithm of the retention factor)", "setting": "[1]", "result": 0.501}, {"measurement": "Log k (logarithm of the retention factor)", "setting": "[2]", "result": 0.123}, {"measurement": "Log kw (lipophilicity chromatographic index, intercept of log k = log kw − S φ)", "result": "3.151 and 3.15"}, {"measurement": "φ 0 (isocratic chromatographic hydrophobicity index)", "result": 75.14}]}
{"smiles": "Cc1ccc(S(=O)(=O)CC(=O)c2ccc(Br)cc2)cc1", "note": "[Compound 11d]", "values": [{"measurement": "Log k (logarithm of the retention factor)", "setting": "[1]", "result": 0.901}, {"measurement": "Log k (logarithm of the retention factor)", "setting": "[2]", "result": 0.364}, {"measurement": "Log k (logarithm of the retention factor)", "setting": "[3]", "result": 0.123}, {"measurement": "Log kw (lipophilicity chromatographic index, intercept of log k = log kw − S φ)", "result": "4.784 and 4.78"}, {"measurement": "φ 0 (isocratic chromatographic hydrophobicity index)", "result": 77.99}]}
{"smiles": "O=S(=O)(C/C(=N/O)c1ccccc1)c1ccccc1", "note": "[Compound 16a]", "values": [{"measurement": "Log k (logarithm of the retention factor)", "setting": "[4]", "result": 0.130}, {"measurement": "Log k (logarithm of the retention factor)", "setting": "[1]", "result": 0.053}, {"measurement": "Log kw (lipophilicity chromatographic index, intercept of log k = log kw − S φ)", "result": "1.941 and 1.94"}, {"measurement": "φ 0 (isocratic chromatographic hydrophobicity index)", "result": 64.39}]}
{"smiles": "Cc1ccc(/C(CS(=O)(=O)c2ccccc2)=N\\O)cc1", "note": "[Compound 16b]", "values": [{"measurement": "Log k (logarithm of the retention factor)", "setting": "[4]", "result": 0.481}, {"measurement": "Log k (logarithm of the retention factor)", "setting": "[1]", "result": 0.280}, {"measurement": "Log k (logarithm of the retention factor)", "setting": "[2]", "result": 0.150}, {"measurement": "Log kw (lipophilicity chromatographic index, intercept of log k = log kw − S φ)", "result": "2.715 and 2.72"}, {"measurement": "φ 0 (isocratic chromatographic hydrophobicity index)", "result": 72.57}]}
{"smiles": "O=S(=O)(C/C(=N/Nc1ccccc1)c1ccccc1)c1ccccc1", "note": "[Compound 17a]", "values": [{"measurement": "Log k (logarithm of the retention factor)", "setting": "[4]", "result": 0.950}, {"measurement": "Log k (logarithm of the retention factor)", "setting": "[1]", "result": 0.824}, {"measurement": "Log k (logarithm of the retention factor)", "setting": "[2]", "result": 0.740}, {"measurement": "Log kw (lipophilicity chromatographic index, intercept of log k = log kw − S φ)", "result": 4.59}, {"measurement": "φ 0 (isocratic chromatographic hydrophobicity index)", "result": 77.97}]}
{"smiles": "Cc1ccc(/C(CS(=O)(=O)c2ccccc2)=N\\Nc2ccccc2)cc1", "note": "[Compound 17b]", "values": [{"measurement": "Log k (logarithm of the retention factor)", "setting": "[4]", "result": 0.847}, {"measurement": "Log k (logarithm of the retention factor)", "setting": "[1]", "result": 0.743}, {"measurement": "Log k (logarithm of the retention factor)", "setting": "[2]", "result": 0.611}, {"measurement": "Log kw (lipophilicity chromatographic index, intercept of log k = log kw − S φ)", "result": "5.182 and 5.18"}, {"measurement": "φ 0 (isocratic chromatographic hydrophobicity index)", "result": 74.52}]}
